Marks after values point to notes of the source that are not given here.
Columns and labels:
[1] = test system: intracellular lipid peroxides of irradiated keratinocytes; test: Lipid peroxides in UV-irradiated keratinocytes (C11-Fluor probe, flow cytometry); format: cell-based, human; settings: 50 μM; UVB 210 mJ/cm^2
Experimental: This study was performed to evaluate the effect of EPSs of the invention on the relative quantification of the amount of lipid peroxides (LP) (degradation of skin lipids) in human cells exposed or not to UVA+UVB irradiation. The evaluation was obtained by using a specific fluorescent probe and fluorescence flow cytometry analysis. This method offers a great sensitivity because the fluorescence of each cell is measured and numerous cells are evaluated (10000 cells per experimental condition).
Keratinocytes were pre-cultivated in complete SFM medium up to 100% of confluence. The culture medium was then replaced with assay medium containing or not the tested EPSS or the reference and the cells were incubated at 37° C. and 5% CO2 for 24 h. After incubation, a specific probe, fluorescent analogue of lipids (C11-Fluor) and the tested EPS or the references were incorporated and the cells were incubated at 37° C. and 5% CO2 for 45 minutes. The probe was then eliminated by rinsing with culture medium. The washing medium was replaced with culture medium containing the tested EPSs or the references. Untreated controls were carried out in parallel. The cells were irradiated at 210 mJ/cm^2 UVB. […] The fluorescence parameters were measured by flow cytometry with a FACSArray™ cytometer driven by the FACSArray™ system software (Becton-Dickinson) on 10 000 individual cells (no cell population selection). […]

loricrin (LOR) mRNA = test: RT-QPCR gene expression in human keratinocytes: loricrin; format: cell-based; settings: Table VIII (first step), 24 h
Experimental: (§1) This assay was performed in order to measure the effects of the EPSs on the induction of mRNA coding for differentiation proteins (filaggrin, loricrin, involucrin) and for stratum corneum tryptic enzyme involved in desquamation (kallikrein 5, 6 and 7). The relative expression of the selected markers was assayed using the “real time quantitative polymerase chain reaction” technology (RT-QPCR).
(§2) Keratinocytes were pre-cultivated in culture medium. At confluence, the culture medium was changed into assay medium (SFM without EGF and pituitary extract) containing or not (control) the test compound and the cells were incubated for 24 h at 37° C. and 5% CO2. At the end of the experiment, the cells were washed in PBS buffer and immediately frozen at −80° C. with 300 μl per well of Tri-reagent.
(§3) Primers couples allowing the amplification of a specific Polymerase Chain Reactions (PCR) product from each selected marker were used: Liver glyceraldehyde 3-phosphate dehydrogenase (G3PDH) was used as a reference marker in this experiment. The total RNA extraction was performed by Tri-Reagent™ according to the protocol. […]
(§4) Initially, the modulation of gene expression was evaluated on six EPSs at the first concentration (Table VIII). As a second step, it was evaluated on four EPSs at three concentrations (Table IX).

kallikrein 5 (KLK5) mRNA = test: RT-QPCR gene expression in human keratinocytes: KLK5; format: cell-based; settings: Table VIII (first step), 24 h
Experimental: as §1, §2, §3, §4

filaggrin (FLG) mRNA = test: RT-QPCR gene expression in human keratinocytes: filaggrin; format: cell-based; settings: Table VIII (first step), 24 h
Experimental: as §1, §2, §3, §4

[2] = test system: kallikrein 7 (KLK7, stratum corneum chymotrypsic enzyme) mRNA; test: RT-QPCR gene expression in human keratinocytes: KLK7; format: cell-based; settings: Table VIII (first step), 24 h
Experimental: as §1, §2, §3, §4

[3] = test system: kallikrein 6 (KLK6, neurosin) mRNA; test: RT-QPCR gene expression in human keratinocytes: KLK6; format: cell-based; settings: Table VIII (first step), 24 h
Experimental: as §1, §2, §3, §4

human keratinocytes = test: Overall desquamation/differentiation gene expression profile in human keratinocytes; format: cell-based; settings: 24 h
Experimental: as §1, §2, §3, §4

involucrin (INV) mRNA = test: RT-QPCR gene expression in human keratinocytes: involucrin; format: cell-based; settings: Table VIII (first step), 24 h
Experimental: as §1, §2, §3, §4

[4] = test system: SkinEthic reconstructed human epidermis; test: Epidermal lipid synthesis (14C-acetate incorporation, TLC) in reconstructed epidermis; format: cell-based; settings: 10^−6M in culture medium (systemic), 72 h
Experimental: This study was performed to evaluate the effect of EPSs of the invention on lipid synthesis. Phospholipids (cellular membranes) and neutral lipids (including epidermis specific lipids) were measured separately using thin layer chromatography. SkinEthic™ reconstructed human epidermis was used for model, its composition being close to normal human epidermis.
The epidermal tissues were placed in 24-well plates and cultivated for 12 h in SkinEthic™ medium. The medium was then replaced by fresh medium and the tested EPSS were applied on the surface of epidermis (topical treatment), at the indicated concentrations. Three control epidermises were untreated and three reference epidermises were treated with the retinoic acid, a known stimulant of total skin lipids, in the culture medium (systemic treatment). All treatments were performed in triplicate and cultivated for 72 hours in total. After 24 h treatment, the culture medium was replaced by labelling medium (0.225 μCi/wells of [^14C] acetate) and the epidermises were treated. The labelling was carried out during a 48-hour incubation period. The Radioactive marker used was [2-14C]-Acetic acid sodium salt, Amersham CFA14 (2.04 Gbq/mmol, 55 mCi/mmol). The epidermises were washed in PBS solution and were dissociated. Then, cells were lysed by treatment with perchloric acid at 0.5 M on ice. Lipids were extracted by methanol/chloroform (2:1) and phase separation was performed by addition of PBS and chloroform after neutralisation in accordance with the procedure described by Bligh and Dyer. The radioactivity was quantified by incorporation into organic phase (lipids) with liquid scintillation (LKB 1210 Rackbeta) after chloroform evaporation. The organic phases were dried under nitrogen and thin layer chromatography (TLC; plates Merck K60) was performed by using two solvent systems: chloroform/methanol/water for Phospholipids (50:18:2.6) or hexane/ether/acetic acid for Neutral lipids (15:5.6:0.19). The various metabolites were quantified by performing a direct count of the radioactivity of the various spots on TLC plates with Phosphorlmager Cyclone™ and Multigauge software (Fujifilm).

human skin explants = test: Antipollution activity on human skin explants (MDA assay, morphology); settings: for MDA concentration: 2 mg per explant topical
Experimental: This study was performed to evaluate the antipollution activity of a cosmetic product though its effect against free radicals on normal skin. A mixture of pollutants and heavy metals was used to mimic the harmful effects of an environmental pollution (like fumes, smoke . . . ). Explants were used as a skin model in this experiment as a good model of human skin.
Pieces of human skin (27 explants) were prepared from an abdominal biopsy removed from a healthy subject during cosmetic reductive surgery. They were placed in BEM medium at 37° C. and 5% CO2. The tested EPSS were applied on the surface of epidermis (topical treatment) at the indicated concentrations (2 mg per explant). They were applied the first day (Day 0) and after one, two, three and four days (Day 1, Day 2, Day 3 and Day 4).
At Day 4, 30 μL of a mixture of heavy metals (Table XII) and hydrocarbon was applied on a paper disk and immediately placed on identified explants.
At Day 0 and Day 5, 3 explants of each batch were removed and fixed in Bouin's liquid for morphological observation. After 48 hours in Bouin medium, explants were dehydrated, embedded in paraffin and stained in Masson's Trichrome. The MDA assay (Malondialdehyde, a stable product from the radical alteration) was performed in culture medium of Day 3, 24 h after irradiation to quantify the efficiency of products against free radicals generated by pollutants.

[5] = test system: senescent human fibroblasts; test: Hyaluronic acid synthesis by senescent human fibroblasts (ELISA), with or without TGFβ; format: cell-based; settings: for HA / HA % of control: 72 h
Excerpt: This study has been performed in order to evaluate the effects of the EPSs on the synthesis of hyaluronic acid by senescent human fibroblasts. […] These senescent cells are obtained by subcultures of normal dermal fibroblasts and a senescent phenotype is obtained from the 12th passage.
This effect was attributed to an increase in sensitivity of cells to EGF. Based on this observation for EGF, a similar situation could exist for other factors like TGFβ. TGFβ has the ability to trigger HA synthesis. It has been observed however, that older cells become desensitized to TGFβ. Two types of effects of EPSS have thus been tested: their direct effect on the production of HA and their possibility to restore sensitivity of the cells to TGFβ.
Senescent fibroblasts were pre-cultivated for 24 hours until confluence. Then, the culture medium was removed and replaced by assay medium containing or not (control), the tested EPSS alone, TGFβ alone or the mix of tested EPSS with TGFβ. The cells were then cultivated for 72 hours. At the end of the incubation, the hyaluronic acid concentration was evaluated in the supernatant by a standard ELISA assay according to the manufacturer's procedures (R&D Systems DY3614) and cell viability was evaluated by using a standard MTT incorporation assay.

[6] = skin explants without contaminant
[7] = culture with TGFβ section, TGFβ alone 1 · 10^−5 g/L (reference of this section)
[8] = culture without TGFβ section, TGFβ alone 1 · 10^−5 g/L

COc1ccc(O)c(C(C)(C)C)c1 [BHA]
% protection (intracellular lipid peroxides) [1]: 76%

[Ca+2].[Cl-].[Cl-] [CaCl2]
LOR expression (control = 100) (loricrin (LOR) mRNA; 1.5 mM): 98
KLK5 expression (control = 100) (kallikrein 5 (KLK5) mRNA; 1.5 mM): 207
FLG expression (control = 100) (filaggrin (FLG) mRNA; 1.5 mM): 125
KLK7 expression (control = 100) ([2]; 1.5 mM): 291
KLK6 expression (control = 100) ([3]; 1.5 mM): 110
desquamation/differentiation gene expression profile (human keratinocytes): pro differentiation profile
INV expression (control = 100) (involucrin (INV) mRNA; 1.5 mM): 282

CC1=C(/C=C/C(C)=C/C=C/C(C)=C/C(=O)O)C(C)(C)CCC1 [Retinoic acid]
LOR expression (control = 100) (loricrin (LOR) mRNA; 10^−7M): 29
KLK5 expression (control = 100) (kallikrein 5 (KLK5) mRNA; 10^−7M): 146
FLG expression (control = 100) (filaggrin (FLG) mRNA; 10^−7M): 35
KLK7 expression (control = 100) ([2]; 10^−7M): 268
KLK6 expression (control = 100) ([3]; 10^−7M): 315
Ceramides and cerebrosides (Cera/Cere) synthesis [4]: 85* % Control
Cholesterol (C) synthesis [4]: 77* % Control
Esterified Fatty Acids (EFA) synthesis [4]: 133 % Control
Free Fatty Acids (FFA) synthesis [4]: 76 % Control
Phospholipids (PL) synthesis [4]: 105 % Control
Sphingomyelin (SM) synthesis [4]: 106 % Control
Sulfate Cholesterol (CSO4) synthesis [4]: 92 % Control
Total Lipids (TL) synthesis [4]: 175** % Control
Total Lipids (TL) synthesis ([4]; listed as retinoic acid): 175 % Control
INV expression (control = 100) (involucrin (INV) mRNA; 10^−7M): 79

Cc1c(C)c2c(c(C)c1O)CC[C@@](C)(CCC[C@H](C)CCC[C@H](C)CCCC(C)C)O2 [α tocopherol]
% pollution (human skin explants; skin explants + contaminant): 24.13%
% protection (human skin explants; skin explants + contaminant): 75.9%
antipollution activity (conclusion of MDA assay) (human skin explants; skin explants + contaminant): reduced pollutants activity
MDA concentration (human skin explants; skin explants + contaminant (heavy metals and hydrocarbon)): 544.93 pmol/mL
% pollution (human skin explants; [6]): 0.00%
MDA concentration (human skin explants; [6]): 392.28 pmol/mL

TGFβ
increase of hyaluronic acid synthesis ([5]; TGFβ at 10 ng/ml): 4 folds
HA [5, 7]: 16.05 µg/mL
HA % of control [5, 7]: 100%
HA [5, 8]: 11.73 µg/mL
HA % of control [5, 8]: 473** %

From US20110150795A1, “COSMETIC COMPOSITIONS COMPRISING EXOPOLYSACCHARIDES DERIVED FROM MICROBIAL MATS, AND USE THEREOF” (Innovactiv Inc., priority 2008, published 2011)
